Here are results for 17 compounds from patent publication US20240368106A1, “HYDROXY AND ALKOXY COUMARINS AS MODULATORS OF POLRMT” (Pretzel Therapeutics, Inc., priority 2021, published 2024).

Sequence of POLRMT (O00411 42-1230): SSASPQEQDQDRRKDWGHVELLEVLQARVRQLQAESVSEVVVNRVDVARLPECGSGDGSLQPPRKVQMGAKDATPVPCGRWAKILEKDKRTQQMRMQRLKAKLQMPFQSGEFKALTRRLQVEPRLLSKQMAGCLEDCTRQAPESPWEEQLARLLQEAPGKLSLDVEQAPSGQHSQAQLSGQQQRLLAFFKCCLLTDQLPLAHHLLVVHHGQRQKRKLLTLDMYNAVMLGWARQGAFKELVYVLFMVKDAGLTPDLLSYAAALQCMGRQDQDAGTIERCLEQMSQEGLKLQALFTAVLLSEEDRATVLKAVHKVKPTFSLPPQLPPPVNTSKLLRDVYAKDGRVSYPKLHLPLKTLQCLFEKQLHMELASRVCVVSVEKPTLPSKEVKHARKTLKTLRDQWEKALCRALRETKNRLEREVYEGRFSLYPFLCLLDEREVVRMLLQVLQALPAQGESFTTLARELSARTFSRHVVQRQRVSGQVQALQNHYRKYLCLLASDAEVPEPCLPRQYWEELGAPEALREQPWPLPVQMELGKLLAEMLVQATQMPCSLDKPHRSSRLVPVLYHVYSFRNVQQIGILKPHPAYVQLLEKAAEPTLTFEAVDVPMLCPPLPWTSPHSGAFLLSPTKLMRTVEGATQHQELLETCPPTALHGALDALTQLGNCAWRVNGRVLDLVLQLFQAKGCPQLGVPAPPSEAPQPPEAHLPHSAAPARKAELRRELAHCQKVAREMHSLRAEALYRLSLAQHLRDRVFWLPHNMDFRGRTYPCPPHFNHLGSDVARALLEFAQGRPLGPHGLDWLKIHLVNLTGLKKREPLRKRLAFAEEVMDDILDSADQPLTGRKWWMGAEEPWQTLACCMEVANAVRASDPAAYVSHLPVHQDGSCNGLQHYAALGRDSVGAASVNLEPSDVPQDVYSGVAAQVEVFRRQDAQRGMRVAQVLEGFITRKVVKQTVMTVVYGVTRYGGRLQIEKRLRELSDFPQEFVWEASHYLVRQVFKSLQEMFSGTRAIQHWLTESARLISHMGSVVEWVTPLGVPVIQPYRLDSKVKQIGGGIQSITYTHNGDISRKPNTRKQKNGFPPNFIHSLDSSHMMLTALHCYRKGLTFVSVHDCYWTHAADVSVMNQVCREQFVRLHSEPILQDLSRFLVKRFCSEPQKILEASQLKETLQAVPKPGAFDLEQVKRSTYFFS

The assay has as its target POLRMT (Homo sapiens (Human), UniProt O00411). The assay is described as follows: homogeneous TR-FRET assay of mitochondrial transcription (inhibition of POLRMT). The assay is classed as biochemical. Conditions: 7.5 nM POLRMT, 15 nM TFB2M, 30 nM TFAM, 0.5 nM DNA template, 500 μM NTPs, 37° C., 60 minutes. As for the experimental part: The inhibitory activity of the compounds of the present invention against POLRMT were determined by assays based on Bergbrede, T., et al., “An adaptable high-throughput technology enabling the identification of specific transcription modulators,” SLAC Discov., 22, 378-386 (2017).
The ability of some compounds of the present invention to inhibit POLRMT were determined in a homogeneous TR-FRET Assay using high-throughput screening in a 384-well plate format. This method is used to monitor the activity of mitochondrial transcription through measurement of its product, a 407 bp long RNA transcript. Detection of the product is facilitated by hybridization of two DNA-oligonucleotide probes to specific and adjacent sequences within the RNA product sequence. Upon annealing of the probes, two fluorophores are coupled directly to an acceptor nucleotide probe (ATT0647, 5′), or introduced via a coupled streptavidin with a biotinylated donor nucleotide probe (Europium cryptate) that is brought into sufficient proximity to serve as a fluorescence-donor-acceptor pair. Thus, a FRET signal at 665 nm is generated upon excitation at 340 nm.
Proteins used as transcription factors (POLRMT: NP_005026.3, TFAM: NP_003192.1, TFB2M: NP_071761.1) are diluted from their stocks to working concentrations of 1 μM, 20 μM and 4 μM respectively, in a dilution buffer containing 20 mM Tris-HCl (pH 8.0), 200 mM NaCl, 10% (v/v) glycerol, 1 mM Dithiothreitol (DTT), 0.5 mM EDTA.
DNA template is a pUC18 plasmid with the mitochondrial light strand promotor sequence (1-477) cloned between HindIII and BamHI sites. The DNA template is restriction linearized proximal to the promotor 3′-end (pUC-LSP). The reaction mixture (10 uL) containing 7.5 nM POLRMT, 15 nM of TFB2M, 30 nM of TFAM, 0.5 nM of DNA template and 500 μM nucleotide triphosphate mix (NTPs) in a reaction buffer (containing 10 mM Tris-HCl (pH 7.5), 10 mM MgCl2, 40 mM NaCl, 10 mM DTT, 0.005% (w/v) Tween-20, 160 units/ml Rnase inhibitor and 0.1 mg/mL BSA) are dispensed to compounds in microplates, using a Thermo Multidrop® dispenser, and incubated at 37° C. in a VWR INCU-Line incubator for 60 minutes after mixing. No nucleotide triphosphate mix is added to negative control samples. Microplates with compounds to be tested in the assay are prepared from 10 mM compound stocks in 100% DMSO, equal amounts of DMSO without any compound are added to positive control and negative control samples.
During the incubation, a mix of the detection reagents is prepared in a buffer such that the enzymatic reaction is terminated due to chelating of Mg-ions and increased ionic strength, containing 50 mM Tris-HCl (pH 7.5), 700 mM NaCl, 20 mM EDTA, and 0.010% (w/v) Tween-20. Europium-streptavidin is pre-incubated with a 200-fold molar excess of a random sequence oligonucleotide to block unspecific binding of oligo, for two hours at ambient temperature in the dark. Afterwards, the blocked Europium-streptavidin is kept on ice until use.
At the end of the enzymatic reaction time, 5 μL detection oligo mix in the detection buffer is added, and assay plates are mixed and kept at ambient temperature for one hour, protected from light. The concentration of the Acceptor nucleotide oligo (e.g., ATTO647N-5′-[…]-3′) and Donor nucleotide oligo (e.g., bio-5′-AACACATCTCT(-bio)GCCAAACCCCA-bio-3′) in each assay well is 1 nM, and 3 nM, respectively.
After incubation with oligo mix, 5 μL of pre-blocked Europium-streptavidin reagent is dispensed to each assay well, assay plates are again mixed and kept at ambient temperature for one hour, protected from light.
The generated signal is measured with BMG Pherastar microtiter plate reader with a TRF light unit, using excitation at 340 nm, an integration time of 200 μs, and a delay time of 100 μs, before detection at 620 nm and 665 nm. The ratio of donor- and acceptor-fluorescence is used as a measure of the generated transcript product (i.e. enzymatic activity).
As a reminder, the IC50 is the point on the concentration scale where inhibition reaches its midpoint. `Cc1cc(O[C@H](C)C(=O)N2CCCCC2)cc2oc(=O)cc(-c3ccc(F)cc3)c12` [Example 19, 4-(4-fluorophenyl)-5-methyl-7-[(1R)-1-methyl-2-oxo-2-(1-piperidyl)ethoxy]chromen-2-one] came in with an IC50 of 500 nM.
On to `COCC(Oc1ccc2c(-c3ccc(F)cc3Cl)cc(=O)oc2c1)C(=O)N(C)C` (single isomer, unassigned) [Example 85, 2-((4-(2-chloro-4-fluorophenyl)-2-oxo-2H-chromen-7-yl)oxy)-3-methoxy-N,N-dimethylpropanamide], for which the IC50 was 200 nM.
With `COCC(Oc1ccc2c(-c3ccccc3C)cc(=O)oc2c1)C(=O)O` (centres unmarked) [Example 65, 3-methoxy-2-((2-oxo-4-(o-tolyl)-2H-chromen-7-yl)oxy)propanoic acid], the concentration for half-maximal inhibition (IC50) amounted to 800 nM.
The figure for `Cc1ccccc1-c1cc(=O)oc2cc(OC3CCOCC3)ccc12` [Example 28, 7-((tetrahydro-2H-pyran-4-yl)oxy)-4-(o-tolyl)-2H-chromen-2-one] is 500 nM; for `Cc1ccccc1-c1cc(=O)oc2cc(Oc3ccccc3)ccc12` [Example 06, 7-phenoxy-4-(o-tolyl)-2H-chromen-2-one] it is 600 nM; for `COCC(C)Oc1cc(C)c2c(-c3ccccc3C)cc(=O)oc2c1` (single isomer, unassigned) [Example 59, 7-((1-methoxypropan-2-yl)oxy)-5-methyl-4-(o-tolyl)-2H-chromen-2-one] it is 600 nM.
For `COCC(Oc1ccc2c(-c3ccc(F)cc3Cl)cc(=O)oc2c1)C(N)=O` (single isomer, unassigned) [Example 74, 2-((4-(2-chloro-4-fluorophenyl)-2-oxo-2H-chromen-7-yl)oxy)-3-methoxypropanamide], the midpoint of inhibition, the IC50, lay at 13000 nM.
The figure for `COC[C@H](Oc1ccc2c(-c3ccccc3C)cc(=O)oc2c1)C(=O)O` [Example 104, (S)-3-methoxy-2-((2-oxo-4-(o-tolyl)-2H-chromen-7-yl)oxy)propanoic acid] is 2000 nM; for `COC(=O)C(COC(F)(F)F)Oc1ccc2c(-c3ccccc3C)cc(=O)oc2c1` (centres unmarked) [Example 105, methyl 2-((2-oxo-4-(o-tolyl)-2H-chromen-7-yl)oxy)-3-(trifluoromethoxy)propanoate] it is 40 nM; for `CCCOc1ccc2c(-c3ncccc3C)cc(=O)oc2c1` [Example 64, 4-(3-methylpyridin-2-yl)-7-propoxy-2H-chromen-2-one] it is 54000 nM.
As to `CC(=O)N1CC[C@H](Oc2ccc3c(-c4ccccc4C)cc(=O)oc3c2)C1` [Example 61, (S)-7-((1-acetylpyrrolidin-3-yl)oxy)-4-(o-tolyl)-2H-chromen-2-one], the IC50 was determined as 28000 nM.
`COCC(Oc1ccc2c(-c3ccccc3Cl)cc(=O)oc2c1)C(=O)N(C)C` (single isomer, unassigned) [Example 94, 2-((4-(2-chlorophenyl)-2-oxo-2H-chromen-7-yl)oxy)-3-methoxy-N,N-dimethylpropanamide]: the IC50 was 90 nM.
Turning to `COc1ccc2c(-c3ccccc3C)cc(=O)oc2c1` [Example 04, 7-methoxy-4-(o-tolyl)-2H-chromen-2-one], the IC50 was 2000 nM.
`CCC(COC)Oc1ccc2c(-c3ccccc3C)cc(=O)oc2c1` (single isomer, unassigned) [Example 45, 7-((1-methoxybutan-2-yl)oxy)-4-(o-tolyl)-2H-chromen-2-one]: the midpoint of inhibition, the IC50, lay at 100 nM.
Regarding `Cc1ccccc1-c1cc(=O)oc2cc(OC(C)C#N)ccc12` (single isomer, unassigned) [Example 42, 2-((2-oxo-4-(o-tolyl)-2H-chromen-7-yl)oxy)propanenitrile], the IC50 was determined as 50 nM.
The value for `COc1ccccc1-c1cc(=O)oc2cc(O)ccc12` [Example 50, 7-hydroxy-4-(2-methoxyphenyl)-2H-chromen-2-one] was 10000 nM; that for `COC[C@@H](Oc1ccc2c(-c3ccccc3C)cc(=O)oc2c1)C(=O)N(C)C` [Example 71, (R)-3-methoxy-N,N-dimethyl-2-((2-oxo-4-(o-tolyl)-2H-chromen-7-yl)oxy)propenamide] was 100 nM.
